Several values for one entry are separate records, joined by “and”; a condition that tells them apart may be missing. Equal values may be shown once. Entries after “also recorded” stand apart in the source; their conditions may differ. Read-outs that look alike come from different tables or passages of the source.
How the values were obtained:
[1] = metabolic stability in liver microsomes, minipig; format: in vitro ADME
[2] = metabolic stability in liver microsomes, dog; format: in vitro ADME
[3] = target: T1, AhR (Homo sapiens, UniProt P35869); experiment: CYP1A1-bla LS-180 AhR antagonist assay; format: cell-based; settings: competition of FICZ- or TCDD-induced AhR activation
T1 construct: LS-180 cells stably transfected with a CYP1A1 promoter-linked beta-lactamase gene reporter construct; endogenous in cells; host or cells: CYP1A1-bla LS-180 cells
T1 sequence (P35869 11-848): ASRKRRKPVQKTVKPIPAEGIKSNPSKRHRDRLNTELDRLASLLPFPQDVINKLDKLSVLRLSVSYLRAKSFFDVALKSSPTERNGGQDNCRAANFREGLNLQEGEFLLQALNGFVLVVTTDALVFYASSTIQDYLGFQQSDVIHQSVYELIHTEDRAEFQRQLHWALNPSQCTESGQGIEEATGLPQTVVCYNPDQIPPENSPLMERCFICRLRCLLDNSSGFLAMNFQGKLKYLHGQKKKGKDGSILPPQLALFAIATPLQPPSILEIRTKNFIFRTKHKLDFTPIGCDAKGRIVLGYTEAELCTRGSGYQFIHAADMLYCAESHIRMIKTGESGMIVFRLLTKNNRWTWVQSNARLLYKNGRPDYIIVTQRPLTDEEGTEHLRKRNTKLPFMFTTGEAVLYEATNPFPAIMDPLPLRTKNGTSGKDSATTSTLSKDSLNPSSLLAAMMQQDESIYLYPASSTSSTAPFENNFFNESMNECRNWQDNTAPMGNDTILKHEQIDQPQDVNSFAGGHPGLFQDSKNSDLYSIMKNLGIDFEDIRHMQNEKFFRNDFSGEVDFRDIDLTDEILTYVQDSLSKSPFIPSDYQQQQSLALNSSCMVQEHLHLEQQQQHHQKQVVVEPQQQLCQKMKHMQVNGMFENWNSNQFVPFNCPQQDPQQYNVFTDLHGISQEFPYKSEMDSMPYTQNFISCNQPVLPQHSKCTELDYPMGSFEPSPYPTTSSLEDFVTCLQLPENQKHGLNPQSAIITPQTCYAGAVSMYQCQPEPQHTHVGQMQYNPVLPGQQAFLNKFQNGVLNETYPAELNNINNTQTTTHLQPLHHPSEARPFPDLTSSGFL
Protocol: A similar assay was used to evaluate the antagonist capacity of compounds. CYP1A1-bla LS-180 cells in exponential growth phase were washed twice with DPBS then seeded into 96-well microplates (50,000 cells/well) and allowed to adhere. Either FICZ or TCDD was added as an agonist and prepared compounds (2× working concentrations in complete media) were added 2 hours later. Cells were incubated for ˜20 hrs, after which compounds were tested for their ability to compete FICZ- or TCDD-induced AhR activation as a means to evaluate potential allosteric or partial agonist activity. The LiveBLAzer FRET B/G β-lactamase substrate was added in the final hour of incubation and resulting blue/green fluorescence was measured using a 96-well microplate reader, as described above.

[4] = metabolic stability in liver microsomes, mouse; format: in vitro ADME
[5] = metabolic stability in hepatocytes, minipig; format: in vitro ADME
[6] = tested on: imiquimod (IMQ)-treated mouse; experiment: IMQ mouse model of psoriasis; format: in vivo; settings: for IL-17% effect vs. IMQ + SEM / IL-17F %effect vs IMQ + SEM: tissue mRNA
Protocol: Female BALB/c mice (BALB/cByJRj) were purchased from Janvier (France). Mice are allowed to eat a normal diet AO4C from SAFE (France) and drink ad libitum. BALB/c JByRj female mice (8 week-old at study initiation) are treated with imiquimod (IMQ) cream (5%) or vanicream (non-inflammatory inert cream). For three days of pre-treatment, and then daily until the end of the study (two hours before each application of IMQ), the same skin area is treated topically with 100 μL of compound. Mice are monitored for changes in clinical symptoms over the course of the study. Affected back skin is examined by histology and qPCR for evidence of compound efficacy.
Starting 3 days after first treatment, IMQ cream was applied daily for 4 (StudyA) or 10 days (Study B). Clinical scoring was monitored daily (FIG. 5A, FIG. 5B). At the end of the study, treated skin was evaluated by histology and qPCR for induced cytokine gene expression.
On days 0, 1, 2, 3: visual evaluation of the skin and psoriasis clinical scorewere noted.
Psoriasis reactions (erythema and plaques) are reported according to a 0-4 scale in ascending order of severity as shown below and results are shown in FIG. 5A1.
On the last day of treatment, a 6 mm punch of skin in the treated area is collected on a aluminium sheet (to keep the skin flattened) and placed into a tube containing Formalin solution (Neutral Buffered 10% (SIGMA HT501320-9 5L)) for histological analysis (FIG. 5A2).
On days 0, 1, 2, 3, 4, 5, 6, 7,8, 9: visual evaluation of the skin and psoriasis clinical score were noted.
Psoriasis reactions (erythema and plaques) are reported according to a 0-4 scale in ascending order of severity as shown below and results are shown in FIG. 5B1.
On the last day of treatment, a 6 mm punch of skin in the treated area is collected on a aluminium sheet (to keep the skin flattened) and placed into a tube containing Formalin solution (Neutral Buffered 10% (SIGMA HT501320-9 5L)) for histological analysis (FIG. 5B2).

[7] = tested on: human peripheral blood CD4+ T-cells; experiment: T cell viability; format: cell-based; settings: 120 h, Th17 polarizing conditions, 5 days
Text: Points represent percent maximum expression of protein compared to Th17 from six combined donors; 3 biological replicates per treatment. Error bars represent standard error of mean. […] Data are mean±standard error from 3 to 9 experimental data points. […] Error bars represent mean ±standard error of 10-15 biological replicates.

[8] = blood-to-plasma ratio and blood cell association, human; format: in vitro ADME

CC(C)c1c(O)cc(-c2cc3ccccc3cn2)cc1O
CLint, mic ([1]; minipig liver microsomes, 0.5 μM): 3.01 mL/min/g liver
CLint scaled at 0.5 μM ([1]; minipig liver microsomes, 0.5 μM, read-out: Scaled CLint, mic): 50.3 mL/min/kg
half-life at 0.5 μM ([1]; minipig, microsomes): 24.2 min
CLint, mic ([2]; dog liver microsomes, 0.5 μM): 1.59 mL/min/g liver
CLint scaled at 0.5 μM ([2]; dog liver microsomes, 0.5 μM, read-out: Scaled CLint, mic): 51.7 mL/min/kg
half-life at 0.5 μM ([2]; dog, microsomes): 32.1 min
AhR antagonist assay result [3]: negative
CLint, mic ([4]; mouse liver microsomes, 0.5 μM): 23.4 mL/min/g liver
CLint scaled at 0.5 μM ([4]; mouse liver microsomes, 0.5 μM, read-out: Scaled CLint, mic): 1190 mL/min/kg
half-life at 0.5 μM ([4]; mouse, microsomes): 2.84 min
in vitro-to-in vivo extrapolation (IVIVE) ratio ([5]; minipig): 0.27
CLint, hep ([5]; minipig hepatocytes, 0.5 μM): 6.27 mL/min/g liver
half-life at 0.5 μM ([5]; minipig hepatocytes, 0.5 μM): 26.5 min
CLint scaled at 0.5 μM ([5]; minipig hepatocytes, 0.5 μM, read-out: Scaled CLint, hep): 105 mL/min/kg
IL-17% effect vs. IMQ + SEM ([6]; Study A, 0.3% + IMQ): 16.27 + 4.816%
IL-17F %effect vs IMQ + SEM ([6]; Study A, 0.3% + IMQ): 22.21 + 7.418%
IL-17% effect vs. IMQ + SEM ([6]; Study B, 0.1% + IMQ): 78.48 + 18.771%
IL-17F %effect vs IMQ + SEM ([6]; Study B, 0.1% + IMQ): 45.23 + 9.519%
IL-17% effect vs. IMQ + SEM ([6]; Study B, 0.3% + IMQ): 79.33 + 22.900%
IL-17F %effect vs IMQ + SEM ([6]; Study B, 0.3% + IMQ): 60.01 + 12.229%
clinical score ([6]; daily topical, 60% EtOH: 40% H2O solution, vs vehicle-treated mice): reduced clinical score
skin cytokine gene expression (IL-17A, IL-17F) ([6]; topical, qPCR): significantly inhibited; also recorded: reduced cytokine gene expression
epidermis thickening induced by imiquimod ([6]; topical, skin histology): reduce the epidermis thickening; also recorded: reduced epidermal thickening
IC50 [7]: 5.9 µM
% Blood Cell Association Mean (% CV) ([8]; 1 μM): 55.0 (2.39) %
% Blood Cell Association Replicate ([8]; 1 μM): 53.9% and 56.4% and 54.6%
Blood-to-plasma Ratio Replicate ([8]; 1 μM): 1.29 and 1.23
Mean % Blood Stability ([8]; 1 μM): 107%
blood plasma ratio at 1 μM ([8]; read-out: Blood-to-plasma Ratio Mean (% CV)): 1.24
blood plasma ratio at 1 μM ([8]; read-out: Blood-to-plasma Ratio Replicate): 1.21

— US20220017468A1, “ISOQUINOLINE COMPOUNDS AND THEIR USE IN TREATING AhR IMBALANCE” (Dermavant Sciences GmbH, priority 2020, published 2022)
